# US5856310A, “Inhibition of farnesyltransferase” (University of Pittsburgh, priority 1995, dated 1999)
# Where two headings read alike, the source gives them in different places. Peptide text beside a SMILES is read from it. * marks the point of attachment. Cbz = O=C(OCc1ccccc1)*
# How the values were obtained:
# [1] = test system: Ras oncogene-transformed EJ3 cells; assay type: cell-based, murine
# Procedure: (§1) The ability of the peptides and their bis-carbobenzyloxy methyl ester derivatives (using BBM-CA1 A2 X; BBM-C-AMBA-M as examples) to inhibit tumor cell growth was determined by the well-known MTT assay. Ras oncogene-transformed EJ3 cells (a balbc 3T3 murine fibroblast (A-31) transformed with H-ras oncogene from a human bladder carcinoma) were exposed to various concentrations of peptides, peptidomimetics and their functionalized derivatives. Four days later, the percentage of live cells present relative to control was determined for each drug concentration. The extent of cell proliferation in the absence of drug was used as 100% proliferation.
# [2] = biological target: T1, p21ras farnesyltransferase from human colon carcinoma (COLO-205) (Homo sapiens, UniProt P49354+P49356); experiment: p21ras farnesyltransferase activity assay, enzyme from COLO-205; assay type: biochemical; conditions: for inhibition of p21ras farnesyltransferase (in words): human tumor enzyme (COLO-205 and Daudi), concentrations as high as 10 μM
# T1 construct: p21ras farnesyltransferase from 60,000×g supernatant fractions was then partially purified by DEAE-sephacel chromatography; endogenous in cells; host or cells: COLO-205 human colon carcinoma cells (cytosolic 60,000×g supernatant, DEAE-sephacel fraction)
# Procedure: (§2) Human colon carcinoma COLO-205 cells (ATCC, Rockville, Md.) were grown to confluency in RPMI containing 10% FBS, 1% penicillin/streptomycin at 37° C and 10% Co2 atmosphere. The cells were homogenized in lysis buffer (10 mM Hepes pH 7.4, 1 mM MgCl2, 1 mM EDTA, 0.1 mM DDT, and 0.1 mM PMSF) and centrifuged at 12,000×g followed by a 60,000×g centrifugation of the supernatant. p21ras farnesyltransferase from 60,000×g supernatant fractions was then partially purified by DEAE-sephacel chromatography where it was eluted with 50 mM Tris (pH 7.5) containing 0.4M NaCl. p21ras farnesyltransferase activity was determined by measuring the amount of [3H]FPP transferred to recombinant p21H-ras as previously described (15,16). p21H-ras was isolated from E. coli strain RRI expressing p21H-ras (Hoffman-LaRoche, Inc.) as described previously (25) except for the last step of purification where HPLC was replaced by DEAE-sephacel chromatography. For peptide inhibition studios, CA1 A2 X peptides and peptidomimetics were premixed with p21ras farnesyltransferase (40 μg) prior to adding the reaction mixture (50 Mm Tris (pH. 7.5), 50 μM ZnCl2, 20 mM KCl, 1 mM DTT, 20 μM p21H-ras, 9 mmol [3H]FPP). After incubation for one hour at 37° C., the reaction was stopped and filtered on glass fibers as described earlier (15,16).
# (§3) To determine the potency of the novel peptidomimetics relative to their parent tetrapeptides, the potency of CA1 A2 X corresponding to the carboxyl terminus ends of p21 KA -ras, p21 KB -ras and p21N-ras to inhibit p21ras farnesyltransferase from human colon carcinoma (COLO-205) and Burkitt's lymphoma (Daudi) was determined.
# [3] = biological target: T2, p21ras farnesyltransferase from Burkitt's lymphoma (Daudi) (Homo sapiens, UniProt P49354+P49356); experiment: p21ras farnesyltransferase activity assay, enzyme from Daudi; assay type: biochemical
# T2 construct: Partially purified p21ras farnesyltransferase from human tumors; endogenous in cells; host or cells: Daudi Burkitt's lymphoma cells
# T2 sequence (P49356 whole entry, one chain of several): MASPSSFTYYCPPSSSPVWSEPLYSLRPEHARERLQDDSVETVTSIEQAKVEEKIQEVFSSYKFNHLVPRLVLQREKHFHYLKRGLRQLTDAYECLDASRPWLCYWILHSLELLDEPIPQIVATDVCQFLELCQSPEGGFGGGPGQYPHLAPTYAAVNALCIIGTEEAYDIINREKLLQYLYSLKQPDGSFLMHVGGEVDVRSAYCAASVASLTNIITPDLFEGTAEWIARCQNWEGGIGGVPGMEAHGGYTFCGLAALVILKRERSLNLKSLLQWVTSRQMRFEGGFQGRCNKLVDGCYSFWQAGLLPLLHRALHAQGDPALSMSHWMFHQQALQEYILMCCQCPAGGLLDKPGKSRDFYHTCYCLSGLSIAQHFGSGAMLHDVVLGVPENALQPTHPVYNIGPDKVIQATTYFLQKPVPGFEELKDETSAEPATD
# Procedure: as §2, §3
# [4] = biological target: T3, p21ras farnesyltransferase from EJ3 cells (Mus musculus, UniProt Q61239+Q8K2I1); experiment: p21ras farnesyltransferase inhibition, enzyme from EJ3 cells; assay type: biochemical, murine
# T3 construct: p21ras farnesyltransferase was partially purified from EJ3 cells by DEAE-chromatography; endogenous in cells; host or cells: EJ3 cells (H-ras-transformed Balb/c 3T3 murine fibroblasts)
# T3 sequence (Q8K2I1 whole entry, one chain of several): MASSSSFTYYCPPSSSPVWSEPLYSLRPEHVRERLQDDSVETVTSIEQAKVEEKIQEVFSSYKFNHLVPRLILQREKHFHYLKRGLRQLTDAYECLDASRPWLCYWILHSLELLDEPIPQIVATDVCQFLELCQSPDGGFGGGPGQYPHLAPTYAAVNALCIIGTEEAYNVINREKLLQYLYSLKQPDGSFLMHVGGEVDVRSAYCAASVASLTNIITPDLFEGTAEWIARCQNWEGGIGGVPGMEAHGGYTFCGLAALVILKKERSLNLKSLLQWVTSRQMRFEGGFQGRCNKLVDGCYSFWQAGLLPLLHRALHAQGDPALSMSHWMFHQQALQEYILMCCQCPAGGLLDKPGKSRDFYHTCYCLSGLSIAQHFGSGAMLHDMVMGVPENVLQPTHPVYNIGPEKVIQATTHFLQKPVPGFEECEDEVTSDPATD
# Procedure: as §2, with “earlier (15,16). […] The results for C-AMBA-M (.quadrature.), CVIM (.circle-solid.), CIIM (Δ), CVVM (.gradient.) and VCIM (.smallcircle.) are indicated in FIG. 1. The data presented is representative of three independent experiments.” for “earlier (15,16).”
# The ability of CA1 A2 X tetrapeptides, peptidomimetics and corresponding functionalized derivatives to inhibit p21ras farnesyltransferase from EJ3 cells was determined in vitro as described above (Example 9). p21ras farnesyltransferase was partially purified from EJ3 cells by DEAE-chromatography as described above (Example 9) and incubated with various concentrations of peptides and peptidomimetics. The ability of these drugs to inhibit the transfer of [3H]FPP to recombinant p21ras was determined as described (Example 9).
# A-31 cells = experiment: Cell growth inhibition, MTT assay, A-31 cells; assay type: cell-based, murine; conditions: concentrations of 500 μM, FIG. 7B
# Procedure: as §1
# An important aspect of the invention is the finding that the antitumor activity of the peptidomimetics of the invention are selective for ras-transformed cells as compared to their non-transformed parent cell line. A-31 is a normal, non-tumorigenic cell line clone from balb murine fibroblasts. EJ3 is a tumorigenic (produces tumors when injected into mice) cell line that was obtained by transforming A-31 cells with H-ras isolated from a human bladder tumor. The ability of BBM-peptides and peptidomimetics to inhibit cell growth of these two related cell lines (A-31 and EJ3) was determined by MTT assay as described above.
# [5] = test system: p21ras plasma membrane association in EJ3 cells; experiment: p21ras membrane association in EJ3 cells (immunoprecipitation, Western blot); assay type: cell-based, murine; conditions: FIG. 6
# Text: This is indicated by FIG. 6. EJ3 cells were exposed to saline, lovastatin, C-AMBA-M or BBM-C-AMBA-M and p21ras immunoprecipitated with the anti-ras antibody Y13-259 (Oncogene Science Inc.). Membrane-bound and cytosolic p21ras were separated by SDS-PAGE and Western blotted with an anti-p21ras antibody (Y13-259). Control cells (saline-treated) contained only membrane-bound p21ras.
# [6] = Table 2, ras oncogene-transformed cells, read-out: IC50 (uM) Growth Studies
# [7] = partially purified enzyme from COLO-205, transfer of farnesyl to recombinant p21 H-ras, read-out: IC50 (μM) COLO-205
# [8] = partially purified enzyme from Daudi, transfer of farnesyl to recombinant p21 H-ras, read-out: IC50 (μM) Daudi
# [9] = MTT, four days, FIG. 4A/4B, read-out: EJ3 cell growth inhibition IC50
# [10] = Table 2, read-out: IC50 (uM) Farnesyltransferase
# [11] = enzyme from EJ3 cells, FIG. 5A/5B, read-out: p21ras farnesyltransferase IC50
# [12] = read-out: IC50, p21ras farnesyltransferase from Daudi
molecule,measurement,setting,value
"O=C(N[C@@H](CSC(=O)OCc1ccccc1)C(=O)O)OCc1ccccc1 [BB-Cys, N S-DiCBZ-cysteine]",IC50,[1]; [6],275 ± 41 µM
Cys-AMBA-Glu [C-AMBA-E],reduction of ability to inhibit the enzyme relative to Cys-AMBA-Met,[2]; COLO-205,24 fold
same,IC50,[2]; [7],1.42 µM
same,reduction of ability to inhibit the enzyme relative to Cys-AMBA-Met,[3]; Daudi,13 fold
same,IC50,[3]; [8],1.54 µM
"CC[C@H](C)[C@H](NC(=O)[C@@H](NC(=O)[C@@H](N)CS)[C@@H](C)CC)C(=O)N[C@@H](CCSC)C(=O)O [CIIM, reference compound] (H-CIIM-OH)",IC50,[2]; [7],0.53 µM
same,IC50,[3]; [8],0.83 µM
"CSCC[C@H](NC(=O)[C@@H](NC(=O)[C@@H](NC(=O)[C@@H](N)CS)C(C)C)C(C)C)C(=O)O [CVVM, Cys-Val-Val-Met, reference compound] (H-CVVM-OH)",IC50,[2]; [7],0.46 µM
same,IC50,[3]; [8],0.61 µM
"CC(C)C[C@H](NC(=O)c1cccc(CNC(=O)[C@@H](N)CS)c1)C(=O)O [C-AMBA-L, Cys-AMBA-Leu]",inhibition of p21ras farnesyltransferase (in words),[2],had no inhibitory activity
same,IC50,[2]; [7],> 10 µM
same,IC50,[3]; [8],> 10 µM
CC[C@H](C)[C@H](NC(=O)[C@@H](NC(=O)[C@H](CSC(=O)OCc1ccccc1)NC(=O)OCc1ccccc1)C(C)C)C(=O)N[C@@H](CCSC)C(=O)OC [BBM-VCIM] (Cbz-C(Cbz)VIM-OMe),IC50,[1]; [6],215 ± 66 µM
"NCCCC[C@H](NC(=O)c1cccc(CNC(=O)[C@@H](N)CS)c1)C(=O)O [C-AMBA-K, Cys-AMBA-Lys]",inhibition of p21ras farnesyltransferase (in words),[2],abolished p21ras farnesyltransferase inhibition activity
same,IC50,[2]; [7],> 10 µM
same,IC50,[3]; [8],> 10 µM
"COC(=O)[C@H](CCSC)NC(=O)c1cccc(CNC(=O)[C@H](CSC(=O)OCc2ccccc2)NC(=O)OCc2ccccc2)c1 [BBM-C-AMBA-M, N, S-DiCBZ-Cys-AMBA-Met-OCH3]",IC50,[1]; [9],10 µM
same,IC50,"[1]; MTT, selectivity study, FIG. 7A/7B, read-out: EJ3 cell growth inhibition IC50",20 µM
same,IC50,[1]; [6],12.1 ± 1 µM
same,IC50,[4]; [10],> 100 µM
same,IC50,[4]; [11],> 100 µM
same,effect on A-31 cell growth (in words),A-31 cells,not much affected
same,inhibition of p21ras plasma membrane association (in words),[5],inhibited p21ras plasma membrane association
"CSCC[C@H](NC(=O)c1cccc(CNC(=O)[C@@H](N)CS)c1)C(=O)O [C-AMBA-M, Cys-AMBA-Met]",IC50,[1]; [9],1500 µM
same,IC50,[1]; [6],627 ± 178 µM
same,IC50,[4]; [10],3.1 µM
same,IC50,[4]; [11],2 µM
same,inhibition of p21ras plasma membrane association (in words),[5],did not inhibit p21ras plasma association
same,increase in potency over CIIM,[2]; COLO-205,8.8 fold
same,increase in potency over CVIM,[2]; COLO-205,3.3 fold
same,increase in potency over CVVM,[2]; COLO-205,7.7 fold
same,IC50,[2]; [7],0.06 µM
same,IC50,"[2]; read-out: IC50, p21ras farnesyltransferase from COLO-205",0.06 µM
same,increase in potency over CIIM,[3]; Daudi,6.9 fold
same,increase in potency over CVIM,[3]; Daudi,1.6 fold
same,increase in potency over CVVM,[3]; Daudi,5.1 fold
same,IC50,[3]; [12],0.12 µM
CC[C@H](C)[C@H](NC(=O)[C@@H](NC(=O)[C@H](CSC(=O)OCc1ccccc1)NC(=O)OCc1ccccc1)C(C)C)C(=O)N[C@@H](CCSC)C(=O)OC [BBM-CVIM] (Cbz-C(Cbz)VIM-OMe),IC50,[4]; [10],> 100 µM
same,IC50,[4]; [11],> 10 µM
"CC[C@H](C)C(=O)O[C@H]1C[C@@H](C)C=C2C=C[C@H](C)[C@H](CC[C@@H]3C[C@@H](O)CC(=O)O3)[C@H]21 [Lovastatin, reference compound]",inhibition of p21ras plasma membrane association (in words),[5],inhibited p21ras membrane association
Ser-AMBA-Met [S-AMBA-M],inhibition of p21ras farnesyltransferase (in words),[2],did not inhibit
same,IC50,[2]; [7],> 10 µM
same,IC50,[3]; [8],> 10 µM
"N[C@@H](CS)C(=O)NCc1cccc(C(=O)N[C@@H](Cc2ccccc2)C(=O)O)c1 [C-AMBA-F, Cys-AMBA-Phe]",IC50,[2]; [7],0.53 µM
same,IC50,[3]; [8],0.6 µM
same,IC50,[3]; [12],0.6 µM
"CC[C@H](C)[C@H](NC(=O)[C@H](CS)NC(=O)[C@@H](N)C(C)C)C(=O)N[C@@H](CCSC)C(=O)O [VCIM, reference compound] (H-VCIM-OH)",IC50,[4]; [10],40 µM
same,IC50,[4]; [11],> 10 µM
same,IC50,[2]; [7],> 10 µM
same,IC50,[3]; [8],> 10 µM
CC[C@H](C)[C@H](NC(=O)[C@@H](NC(=O)[C@@H](N)CS)C(C)C)C(=O)N[C@@H](CCSC)C(=O)OC [M-CVIM] (HELM PEPTIDE1{C.V.I.M.[CO[*:1]]}$$$$V2.0),IC50,[1]; [6],200 ± 58 µM
same,IC50,[4]; [10],4.5 µM
"CC[C@H](C)[C@H](NC(=O)[C@@H](NC(=O)[C@@H](N)CS)C(C)C)C(=O)N[C@@H](CCSC)C(=O)O [CVIM, Cys-Val-Ile-Met, reference compound] (H-CVIM-OH)",IC50,[4]; [10],0.35 µM
same,IC50,"[4]; enzyme from EJ3 cells, FIG. 5A, read-out: p21ras farnesyltransferase IC50",0.4 µM
same,IC50,[3]; [12],0.19 µM
